Experimental data: patent US8377685B2, “Microfluidic device having stable static gradient for analyzing chemotaxis” (priority 2007, dated 2013)
“Also recorded” adds a separate entry of the source.

System: primary human neutrophils
Type: cell-based
Experimental: (§1) Each channel was used of one of four different conditions under investigation: 1) Media control, 2) uniform chemo-attractant, 3) chemo-attractant gradient and 4) chemo-attractant gradient with inhibitor. For conditions 1 and 3 each channel network was wick-filled with EGM2MV cell culture media via the source input port. For condition 2 the channel network was wick-filled with EGM2MV cell culture media containing 10 nM formyl-Met-Leu-Phe (fMLP, Sigma-Aldrich). For condition 4 the channel network was wick-filled with EGM2MV cell culture media containing 5 μM Latrunculin B (Sigma-Aldrich). Next, for conditions 3 and 4, a 1.2 μL drop of 1 μM fMLP was added to the source input using a handheld pipette. For condition 4 the fMLP solution also contained Latrunculin B at the same concentration as the media to ensure a uniform concentration of the inhibitor during the study. This volume flowed into the source volume via passive pumping. Lastly, for all four conditions, a 1.5 μL drop of freshly isolated primary neutrophils at roughly at a concentration of roughly 5,000 cells/μL were added to the cell addition port.
as §1, with “Human neutrophil cell culture media and chemo-attractant solution were prepared using conventional protocols. (See, Nuzzi P A at al., Analysis of neutrophil chemotaxis, Methods in Molecular Biology 370:23-26, 2007). Primary human neutrophils were acquired from donors under approved protocol. (See University of Wisconsin Institutional Review Board and National Institutes of Health Protection concerning protection of human subjects regulations). Four channel networks in a polystyrene device were prepared. Each” for “Each”, “used to test” for “used of”, “different conditions:” for “different conditions under investigation:”

Compound | direction of displacement vectors of cells (preference for migrating up the fMLP gradient) (fMLP gradient with uniform 5 μM Latrunculin B, 52 minutes) | mean total displacement of cells (migration up an fMLP gradient) (fMLP gradient with uniform 5 μM Latrunculin B, cells tracked over 52 minutes) | direction of displacement vectors of cells | mean total displacement of cells
C/C1=C/C(=O)O[C@@H]2C[C@@H](CC[C@H](C)/C=C\CC1)O[C@@](O)([C@@H]1CSC(=O)N1)C2 [Latrunculin B] | abolished | strongly inhibited | – | –
formyl-Met-Leu-Phe [fMLP] | – | – | slight preference for migrating up the channel; also recorded: strong preference for migrating in the direction of increasing concentration of the gradient | migrate further; also recorded: migrated further still
